The text below walks through data of US4950676A, “Amino-esters of dihydropyridines, and their use as circulatory agents for treating ischaemic heart diseases” (Bayer Aktiengesellschaft, priority 1986, dated 1990).

The structures appear in SMILES notation. ≈ marks a conversion by molar mass, not a printed value.

For one assay, the system named is hypertensive rats. Briefly: arterial blood pressure of conscious spontaneously hypertensive rats (tail cuff) after oral administration. As to conditions: Rattus norvegicus, peroral, read-out: ED20 (reduction in blood pressure in hypertensive rats by 20 mm Hg). It counts as in vivo, rat (spontaneously hypertensive rats of the Okamoto strain). As to the method:
The compounds according to the invention are also active after oral administration. The arterial blood pressure of conscious rats with hypertension of genetic origin ("spontaneously hypertensive rats" of the Okamoto strain) is measured bloodlessly with a "tail cuff" at defined intervals of time after administration of the substance. The substances to be tested are suspended in a Tylose suspension and administered intragastrally ("orally") in various doses by means of a stomach tube. The compounds according to the invention reduce the arterial blood pressure of hypertensive rats in a clinically relevant dosage (see Table 3).
Table 3: Reduction in blood pressure in hypertensive rats by 20 mm Hg (ED20)

In assay [1] the test system is isolated aortic ring. Briefly: contraction of isolated rabbit aortic ring stimulated by noradrenaline (alpha-receptor). The note with it: Oryctolagus cuniculus, isolated aortic ring from rabbits, read-out: IC50 b (active compound concentration at which the contraction of the aortic ring is inhibited by 50%). The text has this:
(§1) The specific calcium-antagonistic action of the compounds according to the invention is examined in a test on isolated rabbit vessels (aorta). In this test, contractions of the vascular muscle are caused in vitro by stimulation with KCl or by noradrenaline. KCl causes contractions due to the depolarization-dependent inwards flow of calcium ions.
(§2) These contractions are inhibited by calcium-antagonistic drugs as a function of the dose. Noradrenaline causes contractions by stimulation of the vascular alpha-receptors and the resulting release of calcium ions from the intracellular stores. The noradrenaline-induced contractions are not inhibited by specific calcium antagonists. In contrast, antagonists of the alpha-adrenoreceptors inhibit only the noradrenaline-induced contraction.
(§3) Table 1: Active compound concentration at which the contraction of the aortic ring is inhibited by 50% (IC50)
(§4) Isolated aortic ring from rabbits, stimulated

Assay [2] has as its system isolated aortic ring. Briefly: contraction of isolated rabbit aortic ring stimulated by KCl depolarization (calcium-antagonistic action). The note with it: Oryctolagus cuniculus, isolated aortic ring from rabbits, read-out: IC50 a (active compound concentration at which the contraction of the aortic ring is inhibited by 50%).
From the text: as §1, §2, §3, §4
(a) by KCl depolarization or […]

Assay [3] deals with anaesthetized cats. Briefly: vein volume of an extremity by plethysmography with simultaneous arterial blood pressure recording in anaesthetized cats. It counts as in vivo, cat. As to conditions: Felis catus, iv; anaesthetized cats (ketamine), i.v., in comparison with the reference sodium nitroprusside; read-out: Dose giving significant increase in vein capacity. The procedure: The vein volume of an extremity is measured by plethysmography on anaesthetized cats (ketamine). The arterial blood pressure is also recorded at the same time. Calcium-antagonistic DHP derivatives known hitherto reduce the arterial blood pressure and reduce the vein volume by reflectory vein constriction.
Table 2: Significant increase in vein capacity in anaesthetized cats in comparison with the reference active substance sodium nitroprusside.

For assay [4], the system named is anaesthetized cats. As to conditions: statement on known substances; in words; cited from earlier work.

On to `COC(=O)C1=C(C)NC(C)=C(C(=O)OCCNCC2COc3ccccc3O2)C1c1cccc([N+](=O)[O-])c1` (stereo not drawn) [Example 13, 3-Methyl 5-[2-(1,4-benzodioxan-2-yl-methylamino)ethyl]1,4-dihydro-2,6-dimethyl-4-(3-nitrophenyl)pyridine-3,5-dicarboxylate], for which, in the assay with hypertensive rats, the ED (20 mm Hg) came to 3 mg/kg. In addition, the IC50 with isolated aortic ring [1] turned out to be 0.7 µg/mL (≈ 1.34 µM); in the assay on isolated aortic ring [2] it was 0.08 µg/mL (≈ 0.153 µM).
Take `COc1ccc2c(c1OC)CCN1CCC(NCCOC(=O)C3=C(C)NC(C)=C(C(=O)OC(C)C)C3c3cccc([N+](=O)[O-])c3)CC21` (stereo not drawn) [Example 8, 3-Isopropyl 5-[2-(1,3,4,6,7,11b-hexahydro-8,9-dimethoxy-2H-benzo[a]quinolizin-2-yl-amino)ethyl]1,4-dihydro-2,6-dimethyl-4-(3-nitrophenyl)pyridine-3,5-dicarboxylate]: in the assay on hypertensive rats, the ED (20 mm Hg) was 31.5 mg/kg. The IC50 is 1.6 µg/mL (≈ 2.47 µM) in the assay with isolated aortic ring [1] and 0.3 µg/mL (≈ 0.462 µM) in the assay on isolated aortic ring [2].
Regarding `COC(=O)C1=C(C)NC(C)=C(C(=O)OCCN(C)CC2COc3ccccc3O2)C1c1cccc([N+](=O)[O-])c1` (stereo not drawn) [Example 11, 3-Methyl 5-{2-[N-(1,4-benzodioxan-2-yl-methyl)-N-methylamino]ethyl}1,4-dihydro-2,6-dimethyl-4-(3-nitrophenyl)pyridine-3,5-dicarboxylate], the ED (20 mm Hg) in the assay on hypertensive rats came out at 3 mg/kg. Besides, the minimal effective dose with anaesthetized cats [3] came out at 0.1 mg/kg. The results for the IC50 in the assay on isolated aortic ring [1] and in the assay on isolated aortic ring [2] were 0.18 µg/mL (≈ 0.335 µM) and 0.23 µg/mL (≈ 0.428 µM), respectively.
On to `COc1ccc2c(c1)CCN1CCC(NCCOC(=O)C3=C(C)NC(C)=C(C(=O)OC(C)C)C3c3cccc([N+](=O)[O-])c3)CC21` (stereo not drawn) [Example 9, 3-Isopropyl 5-[2-(1,3,4,6,7,11b-hexahydro-9-methoxy-2H-benzo[a]quinolizin-2-yl)amino]ethyl 1,4-dihydro-2,6-dimethyl-4-(3-nitrophenyl)pyridine-3,5-dicarboxylate], for which the minimal effective dose with anaesthetized cats [3] was 1 mg/kg.
`COc1ccc2c(c1OC)CCN1CCC(NCCCOC(=O)C3=C(C)NC(C)=C(C(=O)OC(C)C)C3c3cccc([N+](=O)[O-])c3)CC21` (stereo not drawn) [Example 7, 3-Isopropyl 5-[3-(1,3,4,6,7,11b-hexahydro-8,9-dimethoxy-2H-benzo[a]quinolizin-2-yl-amino)propyl]1,4-dihydro-2,6-dimethyl-4-(3-nitrophenyl)pyridine-3,5-dicarboxylate]: in the assay on hypertensive rats, the ED (20 mm Hg) stood at 31.5 mg/kg. In addition, the IC50 in the assay with isolated aortic ring [1] worked out at 1.4 µg/mL (≈ 2.11 µM); in the assay on isolated aortic ring [2], 0.5 µg/mL (≈ 0.754 µM).
With `CC1=C(C(=O)OCCN(CCN(Cc2ccccc2)C(C)COc2ccccc2)CCN(Cc2ccccc2)C(C)COc2ccccc2)C(c2cccc([N+](=O)[O-])c2)C(C(=O)OC(C)C)=C(C)N1` (stereo not drawn) [Example 4, 3-Isopropyl 5-(2-[bis-[2-[N-benzyl-N-(2-phenoxy-1-methylethyl)amino]ethyl]amino]ethyl}1,4-dihydro-2,6-dimethyl-4-(3-nitrophenyl)-pyridine-3,5-dicarboxylate], the figures for the IC50 with isolated aortic ring [1] and in the assay on isolated aortic ring [2] were 5 µg/mL (≈ 5.33 µM) and 0.4 µg/mL (≈ 0.426 µM), respectively.
Take `COC(=O)C1=C(C)NC(C)=C(C(=O)OCCNC2CCN3CCc4c(ccc(OC)c4OC)C3C2)C1c1cccc([N+](=O)[O-])c1` (stereo not drawn) [Example 6]: the ED (20 mm Hg) in the assay on hypertensive rats is 1 mg/kg. In addition, the IC50 in the assay with isolated aortic ring [1] amounted to 0.36 µg/mL (≈ 0.58 µM); in the assay on isolated aortic ring [2], 0.26 µg/mL (≈ 0.419 µM).
Regarding `COC(=O)[C@@H]1[C@H]2C[C@H]3c4[nH]c5ccccc5c4CCN3C[C@@H]2CC[C@@H]1O` [yohimbine], in the assay on anaesthetized cats [4], the “vein volume (known substances)” value is listed as “increase in the vein volume”.
Consider `Cc1ccc(N(CC2=NCCN2)c2cccc(O)c2)cc1` [phentolamine], for which, in the assay on anaesthetized cats [4], the “vein volume (known substances)” value is “increase in the vein volume”.
On to `COC(=O)C1=C(C)NC(C)=C(C(=O)OCCCCCCN(CCN(Cc2ccccc2)C(C)COc2ccccc2)CCN(Cc2ccccc2)C(C)COc2ccccc2)C1c1cccc([N+](=O)[O-])c1` (stereo not drawn) [Example 2, 3-Methyl 5-{6-[bis-[2-[N-benzyl-N-(2-phenoxy-1-methylethyl)amino]ethyl]amino]hexyl}1,4-dihydro-2,6-dimethyl-4-(3-nitrophenyl)-pyridine-3,5-dicarboxylate], for which the IC50 in the assay on isolated aortic ring [1] was 3 µg/mL (≈ 3.1 µM); in the assay on isolated aortic ring [2] it was 0.9 µg/mL (≈ 0.931 µM).
For `CC1=C(C(=O)OCCNCCN(Cc2ccccc2)C(C)COc2ccccc2)C(c2cccc([N+](=O)[O-])c2)C(C(=O)OC(C)C)=C(C)N1` (stereo not drawn) [Example 3, 3-Isopropyl 5-{2-[2-[N-benzyl-N-(2-phenoxy-1-methylethyl)amino]ethylamino]ethyl}1,4-dihydro-2,6-dimethyl-4-(3-nitrophenyl)pyridine-3,5-dicarboxylate] the same measures were over 10 µg/mL and 0.23 µg/mL (≈ 0.343 µM).
On to `CC1=C(C(=O)OCCNCC2COc3ccccc3O2)C(c2cccc([N+](=O)[O-])c2)C(C(=O)OC(C)C)=C(C)N1` (stereo not drawn) [Example 12, 3-Isopropyl 5-[2-(1,4-benzodioxan-2-yl-methylamino)ethyl]1,4-dihydro-2,6-dimethyl-4-(3-nitrophenyl)pyridine-3,5-dicarboxylate], for which the minimal effective dose in the assay on anaesthetized cats [3] amounted to 0.1 mg/kg. The IC50 is 0.4 µg/mL (≈ 0.725 µM) with isolated aortic ring [1] and 0.016 µg/mL (≈ 0.029 µM) in the assay on isolated aortic ring [2].
In the case of `COC(=O)C1=C(C)NC(C)=C(C(=O)OCCCCCCNCCN(Cc2ccccc2)C(C)COc2ccccc2)C1c1cccc([N+](=O)[O-])c1` (stereo not drawn) [Example 1, 3-Methyl 5-{6-[2-[N-benzyl-N-(2-phenoxy-1-methylethyl)amino]ethylamino]hexyl}1,4-dihydro-2,6-dimethyl-4-(3-nitrophenyl)-pyridine-3,5-dicarboxylate], the results for the IC50 in the assay with isolated aortic ring [1] and with isolated aortic ring [2] were over 10 µg/mL and 0.23 µg/mL (≈ 0.329 µM), respectively.
